In patent publication US4690944A, “Homocysteine thiolactone derivatives, process for the preparation thereof and pharmaceutical compositions therefrom” (Chiesi Farmaceutici S.p.A., priority 1985, dated 1987):

How the values were obtained:
[1] = Toxicity after single administration (acute toxicity, oral); details: mouse, in vivo, mice, p.o., death-rate after 7 days, read-out: Acute toxicity LD50 approx.
Procedure: IVA:NMRI (SPF) mice, fasted for 18 hours before treatment with water ad libitum, have been used. The compounds, dissolved or suspended in a 0.2% Tween® 80 aqueous solution, have been administered orally, at constant concentration (10%). According to the death-rate observed after 7 days from treatment, the approximate LD50 values, reported in Table 1, have been interpolated on Probits chart.

[2] = test system: respiratory tract; test: Mucosecretodynamic activity, "in vivo" fluorescein test; details: Mus musculus, po; male mice, p.o., 90 minutes before i.v. fluorescein; excretion increase versus controls
Procedure: The compounds, dissolved or suspended in 20 ml/kg of a 0.2% Tween® 80 aqueous suspension, were administered orally 90 minutes before the intravenous injection of 1% (5 ml/kg) fluorescein. Animals treated p.o. with the only vehicle were used as a control group. After 30 minutes from the fluorescein injection the animals were killed and subjected to incannulation of the trachea. Then the respiratory tract was washed and the spectrophotometric dosage of the fluorescein was carried out against phosphate buffer on the so collected eluate, suitably diluted with phosphate buffer and centrifugated.
The amount of fluorescein was determined by means of a calibration curve prepared in the same experimental conditions and the excretion expressed as ng/hour/10 g body weight. For each experimental session the percent increases of excretion versus controls were calculated.

[3] = test system: porcine gastric mucine; test: "In vitro" mucolytic activity (viscoelasticity of porcine gastric mucine); type: biochemical; details: 0.2 ml of 10% DMSO solution of compound in 1.8 ml of 6% mucine, 25° C., 30 minutes, 0.075 Hz
Procedure: Control samples were similarly added with the vehicle only. After incubation at 25° C. for 30 minutes, the analysis of the rheologic characteristics was carried out by means of Contraves Low-Shear 30 sinus viscosimeter endowed with oscillating device for the study of the viscoelasticity. The dynamic measurements of the viscoelasticity were carried out at a single frequency (0.075 Hz), using an appropriate concentrical cylinder measurement system, particularly suited for bronchial mucus (Contraves MS-LS 1-1).
The rheogramm was recorded on X/Y Rikadenki 11T recorder and the […] determination was carried out by means of vectorial calculation.
The percent decreases versus control samples, reported in Table 1, were determined from the means of the values of said parameters (at least 7 replications per sample).

In the case of `NC(CSCC(=O)O)C(=O)O` (centres unmarked) [S-carboxymethyl-cysteine, S--carboxymethyl-cysteine, reference compound], the LD50 at 168 h [1] is reported as > 4000 mg/kg and the ED50 [2] is reported as 1900 mg/kg.
For `O=C(O)c1ccccc1C(=O)NC1CCSC1=O` (centres unmarked) [II, 2-[[N-(tetrahydro-2-oxo-3-thienyl)amino]carbonyl]benzoic acid], the LD50 at 168 h [1] was > 4000 mg/kg, the ED50 [2] was 340 mg/kg and the “"in vitro" % decrease elasticity (G')” value [3] was 23%. For the same compound, the “"in vitro" % decrease viscosity (.eta.)” value [3] was 45%.
For `O=C1SCCC1NC(=O)C1C2C=CC(C2)C1C(=O)O` (centres unmarked) [IV, 3-[[N-(Tetrahydro-2-oxo-3-thienyl)amino]-carbonyl]bicyclo[2,2,1]-ept-5-ene-2-carboxylic acid], the LD50 at 168 h [1] was > 4000 mg/kg, the ED50 [2] was 25 mg/kg and the “"in vitro" % decrease elasticity (G')” value [3] was 32%. The “"in vitro" % decrease viscosity (.eta.)” value [3] was 43%.
For `CC(=O)N[C@@H](CS)C(=O)O` [N-acetyl-L-cysteine, N--acetyl-L-cysteine, reference compound], the LD50 at 168 h [1] was 4400 mg/kg, the ED50 [2] was 1300 mg/kg and the “"in vitro" % decrease elasticity (G')” value [3] was 39%. The “"in vitro" % decrease viscosity (.eta.)” value [3] was 53%.
